Assay results: patent US20260000656A1, “ANTIFUNGAL AGENTS WITH ENHANCED ACTIVITY IN ACIDIC PH” (Scynexis, Inc., priority 2017, published 2026)
In brackets after ≈: the same amount, converted by molar mass. Like-named read-outs stand apart in the source and are kept apart here.

Tests used:
[1] = tested on: C. glabrata isolates; experiment: Broth microdilution susceptibility (CLSI M27-A3) at different medium pH; type: cell-based, Candida glabrata; settings: for MIC range: 50% inhibition; for MIC range / MIC50 / MIC90: 10 vaginal isolates; for MIC50 / MIC90 / MIC: Nakaseomyces glabratus, 24 h; for MIC50: read-out: MIC50; for MIC90: read-out: MIC90; for MIC: read-out: MIC (50% inhibition)
Description: (§1) Ten strains each of C. glabrata and C. albicans vaginal isolates were tested. The strains were obtained from recent clinical trial patients with vulvovaginal candidiasis (VVC) prior to treatment. Candida strains were obtained from the Mycology Reference Library (MRL) at Case Western Reserve University School of Medicine, Ohio, United States.
(§2) Susceptibility testing was performed using a broth microdilution method, according to CLSI M27-A3 guidelines (CLSI. 2008. Reference Method for Broth Dilution Antifungal Susceptibility Testing of Yeasts; Approved Standard—Third Edition. Clinical and Laboratory Standards Institute, CLSI document M27-A3). Antifungals and concentrations tested were SCY-078 and micafungin (both at concentrations within the range of 0.015 to 8 μg/ml) and fluconazole (at concentrations within the range of 0.125 to 64 μg/ml). A 0.1-ml C. albicans and C. glabrata inoculum of 0.5-2.5×10^3 blastospores/ml in RPMI 1640 medium was added to each microdilution well. ATCC strains of Candida parapsilosis and Candida krusei QC isolates were also included concurrently to ensure quality control. Antifungal susceptibility testing was carried out for each isolate in RPMI 1640 at pH 7 (to mimic RPMI medium used in testing the susceptibility of yeast by the CLSI M-27A3 document), pH 5.7, and pH 4.5 (to mimic the pH of the vaginal cavity) by adjusting the pH of the media using NaOH or HCl. […] Agents Chemother., 43: 1383-1386 (1999).
(§3) […] SCY-078 powder was manufactured by Avista, Laboratories, NC. Micafungin and fluconazole were sourced from LGM Pharma.

[2] = tested on: C. albicans isolates; experiment: as above; type: cell-based, Candida albicans; settings: for MIC range / MIC50 / MIC90: 10 vaginal isolates; for MIC90: read-out: MIC90; for MIC: read-out: MIC (50% inhibition)
Description: as §1, §2, §3

[3] = pH 4.5, 50% inhibition, pH 4.5, 24 h
[4] = pH 5.72, 50% inhibition, pH 5.72, 24 h
[5] = pH 7, 50% inhibition, pH 7.0, 24 h

MIC range ([1]; pH 4.5, 24 h): 1 to 16 µg/mL
MIC range ([1]; pH 5.72, 24 h): 2 to 16 µg/mL
MIC range ([1]; pH 7.0, 24 h): 0.5 to 2 µg/mL
increase in MIC50, pH 7 compared to pH 4.5 ([1]; C. glabrata isolates): 8 fold
MIC50 [1, 3]: 8 µg/mL (≈ 26.1 µM)
MIC90 [1, 3]: 16 µg/mL (≈ 52.2 µM)
MIC ([1]; pH 4.5, C. glabrata MRL 32075, pH 4.5, 24 hours): 8 µg/mL (≈ 26.1 µM)
MIC ([1]; pH 4.5, C. glabrata MRL 32232, pH 4.5, 24 hours): 8 µg/mL (≈ 26.1 µM)
MIC ([1]; pH 4.5, C. glabrata MRL 32626, pH 4.5, 24 hours): 8 µg/mL (≈ 26.1 µM)
MIC ([1]; pH 4.5, C. glabrata MRL 32993, pH 4.5, 24 hours): 16 µg/mL (≈ 52.2 µM)
MIC ([1]; pH 4.5, C. glabrata MRL 33204, pH 4.5, 24 hours): 8 µg/mL (≈ 26.1 µM)
MIC ([1]; pH 4.5, C. glabrata MRL 33960, pH 4.5, 24 hours): 16 µg/mL (≈ 52.2 µM)
MIC ([1]; pH 4.5, C. glabrata MRL 33961, pH 4.5, 24 hours): 1 µg/mL (≈ 3.27 µM)
MIC ([1]; pH 4.5, C. glabrata MRL 34339, pH 4.5, 24 hours): 8 µg/mL (≈ 26.1 µM)
MIC ([1]; pH 4.5, C. glabrata MRL 34407, pH 4.5, 24 hours): 8 µg/mL (≈ 26.1 µM)
MIC ([1]; pH 4.5, C. glabrata MRL 34576, pH 4.5, 24 hours): 16 µg/mL (≈ 52.2 µM)
MIC50 [1, 4]: 8 µg/mL (≈ 26.1 µM)
MIC90 [1, 4]: 16 µg/mL (≈ 52.2 µM)
MIC ([1]; pH 5.72, C. glabrata MRL 32075, pH 5.72, 24 hours): 8 µg/mL (≈ 26.1 µM)
MIC ([1]; pH 5.72, C. glabrata MRL 32232, pH 5.72, 24 hours): 8 µg/mL (≈ 26.1 µM)
MIC ([1]; pH 5.72, C. glabrata MRL 32626, pH 5.72, 24 hours): 8 µg/mL (≈ 26.1 µM)
MIC ([1]; pH 5.72, C. glabrata MRL 32993, pH 5.72, 24 hours): 16 µg/mL (≈ 52.2 µM)
MIC ([1]; pH 5.72, C. glabrata MRL 33204, pH 5.72, 24 hours): 8 µg/mL (≈ 26.1 µM)
MIC ([1]; pH 5.72, C. glabrata MRL 33960, pH 5.72, 24 hours): 16 µg/mL (≈ 52.2 µM)
MIC ([1]; pH 5.72, C. glabrata MRL 33961, pH 5.72, 24 hours): 2 µg/mL (≈ 6.53 µM)
MIC ([1]; pH 5.72, C. glabrata MRL 34339, pH 5.72, 24 hours): 2 µg/mL (≈ 6.53 µM)
MIC ([1]; pH 5.72, C. glabrata MRL 34407, pH 5.72, 24 hours): 8 µg/mL (≈ 26.1 µM)
MIC ([1]; pH 5.72, C. glabrata MRL 34576, pH 5.72, 24 hours): 8 µg/mL (≈ 26.1 µM)
MIC50 [1, 5]: 1 µg/mL (≈ 3.27 µM)
MIC90 [1, 5]: 2 µg/mL (≈ 6.53 µM)
MIC ([1]; pH 7, C. glabrata MRL 32075, pH 7.0, 24 hours): 2 µg/mL (≈ 6.53 µM)
MIC ([1]; pH 7, C. glabrata MRL 32232, pH 7.0, 24 hours): 2 µg/mL (≈ 6.53 µM)
MIC ([1]; pH 7, C. glabrata MRL 32626, pH 7.0, 24 hours): 1 µg/mL (≈ 3.27 µM)
MIC ([1]; pH 7, C. glabrata MRL 32993, pH 7.0, 24 hours): 2 µg/mL (≈ 6.53 µM)
MIC ([1]; pH 7, C. glabrata MRL 33204, pH 7.0, 24 hours): 2 µg/mL (≈ 6.53 µM)
MIC ([1]; pH 7, C. glabrata MRL 33960, pH 7.0, 24 hours): 1 µg/mL (≈ 3.27 µM)
MIC ([1]; pH 7, C. glabrata MRL 33961, pH 7.0, 24 hours): 1 µg/mL (≈ 3.27 µM)
MIC ([1]; pH 7, C. glabrata MRL 34339, pH 7.0, 24 hours): 0.5 µg/mL (≈ 1.63 µM)
MIC ([1]; pH 7, C. glabrata MRL 34407, pH 7.0, 24 hours): 1 µg/mL (≈ 3.27 µM)
MIC ([1]; pH 7, C. glabrata MRL 34576, pH 7.0, 24 hours): 1 µg/mL (≈ 3.27 µM)
MIC range ([2]; 50% inhibition, pH 4.5, 24 h): 0.25 to 8 µg/mL
MIC50 ([2]; 50% inhibition, pH 5.72, 24 h): < 0.125 µg/mL
MIC range ([2]; 50% inhibition, pH 5.72, 24 h): <0.125 to 1 µg/mL
MIC range ([2]; 50% inhibition, pH 7.0, 24 h): <0.125 to 1 µg/mL
MIC50 ([2]; Candida albicans, 24 h, pH 4.5, 50% inhibition, pH 4.5, 24 h, read-out: MIC50): 0.25 µg/mL (≈ 0.816 µM)
MIC90 ([2]; Candida albicans, 24 h, pH 4.5, 50% inhibition, pH 4.5, 24 h): 1 µg/mL (≈ 3.27 µM)
MIC ([2]; Candida albicans, 24 h, pH 4.5, C. albicans MRL 34366, pH 4.5, 24 hours): 0.25 µg/mL (≈ 0.816 µM)
MIC ([2]; Candida albicans, 24 h, pH 4.5, C. albicans MRL 34367, pH 4.5, 24 hours): 1 µg/mL (≈ 3.27 µM)
MIC ([2]; Candida albicans, 24 h, pH 4.5, C. albicans MRL 34372, pH 4.5, 24 hours): 0.25 µg/mL (≈ 0.816 µM)
MIC ([2]; Candida albicans, 24 h, pH 4.5, C. albicans MRL 34373, pH 4.5, 24 hours): 0.5 µg/mL (≈ 1.63 µM)
MIC ([2]; Candida albicans, 24 h, pH 4.5, C. albicans MRL 34374, pH 4.5, 24 hours): 0.25 µg/mL (≈ 0.816 µM)
MIC ([2]; Candida albicans, 24 h, pH 4.5, C. albicans MRL 34385, pH 4.5, 24 hours): 0.25 µg/mL (≈ 0.816 µM)
MIC ([2]; Candida albicans, 24 h, pH 4.5, C. albicans MRL 34389, pH 4.5, 24 hours): 0.5 µg/mL (≈ 1.63 µM)
MIC ([2]; Candida albicans, 24 h, pH 4.5, C. albicans MRL 34399, pH 4.5, 24 hours): 8 µg/mL (≈ 26.1 µM)
MIC ([2]; Candida albicans, 24 h, pH 4.5, C. albicans MRL 34408, pH 4.5, 24 hours): 0.25 µg/mL (≈ 0.816 µM)
MIC ([2]; Candida albicans, 24 h, pH 4.5, C. albicans MRL 34449, pH 4.5, 24 hours): 0.5 µg/mL (≈ 1.63 µM)
MIC50 ([2]; Candida albicans, 24 h, pH 5.72, 50% inhibition, pH 5.72, 24 h, read-out: MIC50): < 0.125 µg/mL
MIC90 ([2]; Candida albicans, 24 h, pH 5.72, 50% inhibition, pH 5.72, 24 h): 0.25 µg/mL (≈ 0.816 µM)
MIC ([2]; Candida albicans, 24 h, pH 5.72, C. albicans MRL 34366, pH 5.72, 24 hours): < 0.125 µg/mL
MIC ([2]; Candida albicans, 24 h, pH 5.72, C. albicans MRL 34367, pH 5.72, 24 hours): 0.25 µg/mL (≈ 0.816 µM)
MIC ([2]; Candida albicans, 24 h, pH 5.72, C. albicans MRL 34372, pH 5.72, 24 hours): < 0.125 µg/mL
MIC ([2]; Candida albicans, 24 h, pH 5.72, C. albicans MRL 34373, pH 5.72, 24 hours): < 0.125 µg/mL
MIC ([2]; Candida albicans, 24 h, pH 5.72, C. albicans MRL 34374, pH 5.72, 24 hours): < 0.125 µg/mL
MIC ([2]; Candida albicans, 24 h, pH 5.72, C. albicans MRL 34385, pH 5.72, 24 hours): < 0.125 µg/mL
MIC ([2]; Candida albicans, 24 h, pH 5.72, C. albicans MRL 34389, pH 5.72, 24 hours): < 0.125 µg/mL
MIC ([2]; Candida albicans, 24 h, pH 5.72, C. albicans MRL 34399, pH 5.72, 24 hours): 1 µg/mL (≈ 3.27 µM)
MIC ([2]; Candida albicans, 24 h, pH 5.72, C. albicans MRL 34408, pH 5.72, 24 hours): 0.25 µg/mL (≈ 0.816 µM)
MIC ([2]; Candida albicans, 24 h, pH 5.72, C. albicans MRL 34449, pH 5.72, 24 hours): < 0.125 µg/mL
MIC50 ([2]; Candida albicans, 24 h, pH 7, 50% inhibition, pH 7.0, 24 h, read-out: MIC50): 0.25 µg/mL (≈ 0.816 µM)
MIC90 ([2]; Candida albicans, 24 h, pH 7, 50% inhibition, pH 7.0, 24 h): 0.25 µg/mL (≈ 0.816 µM)
MIC ([2]; Candida albicans, 24 h, pH 7, C. albicans MRL 34366, pH 7.0, 24 hours): < 0.125 µg/mL
MIC ([2]; Candida albicans, 24 h, pH 7, C. albicans MRL 34367, pH 7.0, 24 hours): 0.25 µg/mL (≈ 0.816 µM)
MIC ([2]; Candida albicans, 24 h, pH 7, C. albicans MRL 34372, pH 7.0, 24 hours): < 0.125 µg/mL
MIC ([2]; Candida albicans, 24 h, pH 7, C. albicans MRL 34373, pH 7.0, 24 hours): 0.25 µg/mL (≈ 0.816 µM)
MIC ([2]; Candida albicans, 24 h, pH 7, C. albicans MRL 34374, pH 7.0, 24 hours): 0.25 µg/mL (≈ 0.816 µM)
MIC ([2]; Candida albicans, 24 h, pH 7, C. albicans MRL 34385, pH 7.0, 24 hours): < 0.125 µg/mL
MIC ([2]; Candida albicans, 24 h, pH 7, C. albicans MRL 34389, pH 7.0, 24 hours): < 0.125 µg/mL
MIC ([2]; Candida albicans, 24 h, pH 7, C. albicans MRL 34399, pH 7.0, 24 hours): 1 µg/mL (≈ 3.27 µM)
MIC ([2]; Candida albicans, 24 h, pH 7, C. albicans MRL 34408, pH 7.0, 24 hours): 0.25 µg/mL (≈ 0.816 µM)
MIC ([2]; Candida albicans, 24 h, pH 7, C. albicans MRL 34449, pH 7.0, 24 hours): 0.25 µg/mL (≈ 0.816 µM)
SMILES: OC(Cn1cncn1)(Cn1cncn1)c1ccc(F)cc1F [Fluconazole, reference compound]
